Laboratory results from article PMC10515640, “Structure-Based Optimization of Covalent, Small-Molecule Stabilizers of the 14-3-3σ/ERα Protein–Protein Interaction from Nonselective Fragments” (Journal of the American Chemical Society, 2023).

Tests used:
14-3-3σ/C-RAF [1] = biological target: T1, 14-3-3σ/C-RAF (Homo sapiens, UniProt P31947); experiment: Fluorescence anisotropy compound titration, FAM-labeled C-RAF peptide; assay type: binding; details: 10 nM C-RAF-FAM labeled peptide, 5 µM 14-3-3σ, overnight incubation; read-out: EC50 value C-RAF (FA compound titration)
T1 construct: The 14-3-3 σ isoform (full-length for mass spectrometry and fluorescence anisotropy assays, ΔC for crystallography); made in house; host or cells: E. coli Rosetta 2(DE3)pLysS, pPROEX HTb vector
T1 sequence (P31947 1-248): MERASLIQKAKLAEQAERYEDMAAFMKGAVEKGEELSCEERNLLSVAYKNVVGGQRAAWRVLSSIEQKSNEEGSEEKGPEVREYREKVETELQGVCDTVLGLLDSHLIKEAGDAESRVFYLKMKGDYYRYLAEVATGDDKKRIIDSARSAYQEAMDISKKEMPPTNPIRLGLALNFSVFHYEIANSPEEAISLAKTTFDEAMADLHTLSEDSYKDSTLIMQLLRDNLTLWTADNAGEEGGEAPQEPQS
Outline: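 Peptide-binding stabilization was followed by fluorescence anisotropy. A mix of 5 µM 14-3-3σ and 10 nM FAM-labeled C-RAF peptide received 2-fold serial dilutions of compound starting at 500 or 1000 µM. The buffer was 10 mM HEPES pH 7.5, 150 mM NaCl, 0.1% Tween20 and 1 mg/mL BSA. Anisotropy was read after incubating overnight at room temperature. A four-parameter logistic fit in GraphPad Prism 7 gave EC50 values averaged from three experiments.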

14-3-3σ/ERα [2] = biological target: T2, 14-3-3σ/ERα (Homo sapiens, UniProt P03372+P31947); experiment: Fluorescence anisotropy compound titration, FAM-labeled ERα peptide; assay type: binding; details: 10 nM ERα-FAM labeled peptide, 1 µM 14-3-3σ, overnight incubation (24 h); read-out: EC50 value ERα (FA compound titration)
T2 construct: The 14-3-3 σ isoform (full-length for mass spectrometry and fluorescence anisotropy assays, ΔC for crystallography); made in house; host or cells: E. coli Rosetta 2(DE3)pLysS, pPROEX HTb vector
Outline: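 Compounds, serially diluted 2-fold from a top concentration of 500 or 1000 µM, were added to 10 nM FAM-labeled ERα peptide plus 1 µM 14-3-3σ in 10 mM HEPES pH 7.5, 150 mM NaCl, 0.1% Tween20, 1 mg/mL BSA (1% DMSO). Anisotropy was measured after overnight room-temperature incubation, and EC50 values were derived by four-parameter logistic fitting averaged over three independent experiments.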

14-3-3σ = biological target: T3, 14-3-3σ (Homo sapiens, UniProt P31947); experiment: Mass spectrometry dose response, compound binding to 14-3-3σ in the absence of peptide (apo); details: 100 nM compound, 100 nM 14-3-3σ
T3 construct: The 14-3-3 σ isoform (full-length for mass spectrometry and fluorescence anisotropy assays, ΔC for crystallography); made in house; host or cells: E. coli Rosetta 2(DE3)pLysS, pPROEX HTb vector
T3 sequence (P31947 1-248): T1 sequence (P31947 1-248)
Outline: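 This apo mass spectrometry assay tracked adduct formation between compounds and the native cysteine of 14-3-3σ in the absence of any peptide. Wells held 100 nM protein in 10 mM TRIS pH 8.0 with a 3-fold compound dilution series, final volume 50 μl. Injections of 6 μl were taken at 1h, 8h, 16h and 24h, and dose responses were fitted with a four-parameter variable-slope model in GraphPad Prism.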

14-3-3σ/ERα [3] = biological target: T2, 14-3-3σ/ERα; experiment: Mass spectrometry dose response, compound binding to 14-3-3σ in the presence of ERα phosphopeptide; details: 100 nM compound, 100 nM 14-3-3σ, ERα-peptide 2 µM
Outline: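 Covalent labeling of Cys38 on 14-3-3σ was tracked by LC-MS on a Waters Acquity UPLC/Xevo G2-XS Q-Tof, with samples desalted on a Protein BEH-C4 column. Full-length wild type 14-3-3σ (100 nM) plus ERα phosphopeptide was mixed with compound in 10 mM TRIS, pH 8.0, at 50 μl per well. Percent bound was measured at several time points.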

14-3-3σ/ERα [4] = biological target: T2, 14-3-3σ/ERα; experiment: Fluorescence anisotropy protein titration, FAM-labeled ERα peptide; assay type: binding; details: 10 nM FAM-ERα peptide; for X Fold stabilization (100 µM compound) of 14-3-3σ/ERα: versus DMSO reference; for Kd: 100 µM compound, overnight incubation
Description: To evaluate compound-mediated stabilization of the 14-3-3σ/ERα complex directly, FA protein titrations were performed at a saturating concentration of compound. FA protein titrations allowed the quantification of the cooperative effect by comparing the apparent dissociation constants (appKD) of the binary and ternary complexes. 14-3-3σ was titrated into 10 nM FAM-labeled ERα peptide in the presence of DMSO or 100 μM of the compounds (Table S4). […]
diluted in buffer (10 mM HEPES, pH 7.5, 150 mM NaCl, 0.1% Tween20, 1 mg/mL Bovine Serum Albumin (BSA; Sigma-Aldrich). Final DMSO in the assay was always 1%. […]
Protein titrations were made by titrating 14-3-3σ in a 2-fold dilution series (starting at 300 µM) to a mix of fluorescein-labeled peptide (10 nM) and DMSO or compound (100 µM). Fluorescence anisotropy measurements were performed after overnight incubation at room temperature. […]
Wells containing only FAM-peptide were used to set as G-factor at 35 mP. Data reported are at endpoint. EC50 and apparent Kd values were obtained from fitting the data with a four-parameter logistic model (4PL) in GraphPad Prism 7 for Windows. Data was obtained and averaged based on either three (compound titrations) or two (protein titrations) independent experiments.

14-3-3σ/C-RAF [5] = biological target: T1, 14-3-3σ/C-RAF; experiment: Mass spectrometry dose response, compound binding to 14-3-3σ in the presence of C-RAF phosphopeptide; details: 100 nM compound, 100 nM 14-3-3σ, C-RAF peptide 18 µM
Outline: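 Compound stocks of 50 mM in DMSO were serially diluted 3-fold to give 19-point dose responses topping out at 1 mM, then 1000 nl was transferred into 50 μl wells holding 100 nM full-length wild type 14-3-3σ plus C-RAF phosphopeptide. Mass spectrometry measured percent compound bound to Cys38, with curves fitted in GraphPad Prism using a four-parameter variable-slope model.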

SMILES | EC50 (14-3-3σ/C-RAF [1]) | EC50 (14-3-3σ/ERα [2]) | Percentage (%) bound of compound to 14-3-3σ, APO 1h (14-3-3σ) | Percentage (%) bound of compound to 14-3-3σ, APO 8h (14-3-3σ) | Percentage (%) bound of compound to 14-3-3σ, APO 16h (14-3-3σ) | Percentage (%) bound of compound to 14-3-3σ, APO 24h (14-3-3σ) | Percentage (%) bound of compound to 14-3-3σ, ERα 1h (14-3-3σ/ERα [3]) | Percentage (%) bound of compound to 14-3-3σ, ERα 8h (14-3-3σ/ERα [3]) | Percentage (%) bound of compound to 14-3-3σ, ERα 16h (14-3-3σ/ERα [3]) | Percentage (%) bound of compound to 14-3-3σ, ERα 24h (14-3-3σ/ERα [3]) | X Fold stabilization (100 µM compound) of 14-3-3σ/ERα (14-3-3σ/ERα [4]) | Kd (14-3-3σ/ERα [4]) | Percentage (%) bound of compound to 14-3-3σ, CRAF 1h (14-3-3σ/C-RAF [5]) | Percentage (%) bound of compound to 14-3-3σ, CRAF 8h (14-3-3σ/C-RAF [5]) | Percentage (%) bound of compound to 14-3-3σ, CRAF 24h (14-3-3σ/C-RAF [5]; 24h) | Percentage (%) bound of compound to 14-3-3σ, CRAF 24h (14-3-3σ/C-RAF [5]; head prints 24h)
O=C(CCl)NCC1CCN(C(=O)C2(Nc3ccc(Cl)cc3)CCOCC2)CC1 [compound 127] | > 150 µM | 2 ± 0.3 µM | 0% | 0% | 1.0% | 2.0% | 9.5% | 19.6% | 56.8% | 85.2% | 19 fold | 0.077 µM | 1.1% | 2.9% | 10.5% | 7.4%
O=C(CCl)NC1CC2(CCN(C(=O)C3(Nc4ccc(Cl)cc4)CCOCC3)CC2)C1 [compound 166] | 77 ± 5 µM | 6 ± 0.3 µM | 1.2% | 3.2% | 5.5% | 13.3% | 32.6% | 60.3% | 87.6% | 94.0% | 13 fold | 0.16 µM | 1.8% | 4.0% | 23.3% | 11.8%
CC1CC(Nc2ccc(Cl)cc2)(C(=O)NCC2CC3(CCN(C(=O)CCl)CC3)C2)CC(C)O1 (stereo not drawn) [compound 180] | > 150 µM | 10 ± 2 µM | 1.4% | 2.9% | 7.3% | 11.5% | 40.8% | 50.1% | 84.4% | 96.1% | 7 fold | 0.192 µM | 0% | 2.5% | 8.5% | 4.5%
